Results reported in ChEMBL document CHEMBL1201862, “PubChem BioAssay data set” (2004).
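Dose response: 5 concentrations. Exposure: 48 h. Format: 96-well plates. Endpoint: linear interpolation; highest concentration if not reached. Abbreviation: GI50, concentration required for 50% inhibition of growth.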 The source made the active and inactive calls. Cut-off read from the data, not from the text of the source: active = GI50 up to about 1.1 µM and inactive = higher.

How the values were obtained:
Experiment in all cases: NCI tumour cell line growth inhibition, 48 h
786-0 = system: 786-0
A498 = system: A498
HCT-116 = system: HCT-116
HCT-15 = system: HCT-15
HL-60 = system: HL-60
HT-29 = system: HT-29
KM12 = system: KM12
LOX IMVI = system: LOX IMVI
M14 = system: M14
NCI-H460 = system: NCI-H460
OVCAR-3 = system: OVCAR-3
OVCAR-8 = system: OVCAR-8
SK-MEL-5 = system: SK-MEL-5
SN12C = system: SN12C
SNB-19 = system: SNB-19
SNB-78 = system: SNB-78
UACC-62 = system: UACC-62
SF-268 = system: SF-268
SNB-75 = system: SNB-75

SMILES | GI50 (786-0) | GI50 (A498) | GI50 (HCT-116) | GI50 (HCT-15) [µM] | GI50 (HL-60) | GI50 (HT-29) | GI50 (KM12) | GI50 (LOX IMVI) | GI50 (M14) | GI50 (NCI-H460) | GI50 (OVCAR-3) | GI50 (OVCAR-8) | GI50 (SK-MEL-5) | GI50 (SN12C) | GI50 (SNB-19) | GI50 (SNB-78) | GI50 (UACC-62) | GI50 (SF-268) | GI50 (SNB-75)
C/C(=N\[N+](C)(C)C)C(c1ccccc1)C1(c2ccccc2)C(c2ccccc2)=C1c1ccccc1 (stereo not given) | > 100 µM (inactive) | > 100 µM (inactive) | > 100 µM (inactive) | 36.9 | > 100 µM (inactive) | > 100 µM (inactive) | > 100 µM (inactive) | > 100 µM (inactive) | > 100 µM (inactive) | > 100 µM (inactive) | > 100 µM (inactive) | 67.5 µM (inactive) | > 100 µM (inactive) | > 100 µM (inactive) | > 100 µM (inactive) | 50.5 µM (inactive) | > 100 µM (inactive) | – | –
C=C(OC1C(C)=C2C(C1OC(=O)CCCCCCC)C(C)(OC(C)=O)CC(OC(=O)CCC)C1(O)C2OC(=O)C1(C)O)/C(C)=C/C (stereo not given) | < 0.0001 µM (active) | 0.0125 µM (active) | – | 0.0316 | – | 0.0125 µM (active) | 0.0125 µM (active) | 0.0125 µM (active) | < 0.0001 µM (active) | 0.0125 µM (active) | – | 0.0125 µM (active) | 0.0125 µM (active) | 0.0125 µM (active) | 0.0422 µM (active) | 0.015 µM (active) | 0.0125 µM (active) | 0.0125 µM (active) | 0.0125 µM (active)
N#CC(NNC(=O)c1ccccc1O)c1cccc(O)c1 (stereo not given) | 6.53 µM (inactive) | – | 3.26 µM (inactive) | 5.31 | 4.74 µM (inactive) | 37.6 µM (inactive) | 4.52 µM (inactive) | 4.94 µM (inactive) | 6.35 µM (inactive) | 3.47 µM (inactive) | 13 µM (inactive) | 8.22 µM (inactive) | 18.2 µM (inactive) | 4.7 µM (inactive) | – | 4.89 µM (inactive) | 1.85 µM (inactive) | 0.986 µM (active) | 1.7 µM (inactive)
c1cc(-c2cn3ccsc3n2)ccn1 | 38.4 µM (inactive) | > 100 µM (inactive) | > 75.5 µM (inactive) | > 44.2 | > 44.9 µM (inactive) | > 100 µM (inactive) | > 100 µM (inactive) | > 61 µM (inactive) | > 100 µM (inactive) | 99.3 µM (inactive) | > 100 µM (inactive) | > 45.1 µM (inactive) | > 100 µM (inactive) | > 100 µM (inactive) | > 100 µM (inactive) | > 100 µM (inactive) | > 100 µM (inactive) | > 100 µM (inactive) | > 86.9 µM (inactive)
CCN(CC)CC1c2ccccc2C(CNc2ccccc2)N1C (stereo not given) | > 100 µM (inactive) | – | – | > 100 | 29.6 µM (inactive) | – | > 100 µM (inactive) | > 100 µM (inactive) | > 100 µM (inactive) | > 100 µM (inactive) | > 100 µM (inactive) | > 100 µM (inactive) | > 100 µM (inactive) | > 100 µM (inactive) | > 100 µM (inactive) | > 100 µM (inactive) | > 100 µM (inactive) | > 100 µM (inactive) | 49.3 µM (inactive)
O.O=C([O-])c1ccccc1Nc1ccccc1C(=O)[O-].[Zn+2] | 24.1 µM (inactive) | 19.2 µM (inactive) | 38.4 µM (inactive) | > 60 | 23.7 µM (inactive) | > 70.6 µM (inactive) | > 100 µM (inactive) | 22 µM (inactive) | 35.1 µM (inactive) | > 65.9 µM (inactive) | 18.8 µM (inactive) | 26.9 µM (inactive) | 25.5 µM (inactive) | 83.8 µM (inactive) | 17.4 µM (inactive) | 37.2 µM (inactive) | 19.7 µM (inactive) | 21 µM (inactive) | 18.3 µM (inactive)
O=C(N/C=C/C=C/Sc1ccccc1)OCc1ccccc1 | 16.9 µM (inactive) | – | 18.2 µM (inactive) | 18.1 | 8.83 µM (inactive) | 17.5 µM (inactive) | 17.5 µM (inactive) | 17.5 µM (inactive) | 18.5 µM (inactive) | 21.7 µM (inactive) | 17.3 µM (inactive) | 15.7 µM (inactive) | 17.7 µM (inactive) | 17.1 µM (inactive) | 33.3 µM (inactive) | 40.2 µM (inactive) | 16 µM (inactive) | 17.5 µM (inactive) | 21.5 µM (inactive)
Cc1oc2c(C)c3oc(=O)cc(C)c3cc2c1CNC(=O)[C@@H]1OCCOCCOCCOCCOCCOC1C(=O)O (stereo not given in full) | 21.2 µM (inactive) | > 100 µM (inactive) | > 100 µM (inactive) | > 100 | > 100 µM (inactive) | > 100 µM (inactive) | > 100 µM (inactive) | > 100 µM (inactive) | 12.5 µM (inactive) | > 100 µM (inactive) | > 100 µM (inactive) | > 100 µM (inactive) | > 100 µM (inactive) | > 100 µM (inactive) | > 100 µM (inactive) | > 100 µM (inactive) | > 100 µM (inactive) | > 100 µM (inactive) | > 100 µM (inactive)
COc1ccc(-c2cc(C(=O)Nc3ccc(C)c(C)c3)nc(NC#N)n2)cc1 | > 100 µM (inactive) | > 100 µM (inactive) | > 100 µM (inactive) | > 100 | – | > 100 µM (inactive) | > 100 µM (inactive) | > 100 µM (inactive) | > 100 µM (inactive) | > 100 µM (inactive) | > 100 µM (inactive) | > 100 µM (inactive) | > 100 µM (inactive) | > 100 µM (inactive) | > 100 µM (inactive) | > 100 µM (inactive) | > 100 µM (inactive) | > 100 µM (inactive) | > 100 µM (inactive)
O=[N+]([O-])c1ccc(-c2noc(-c3ccccc3)c2C2=NCCN2)cc1 | 54 µM (inactive) | – | 30.1 µM (inactive) | > 100 | 55.3 µM (inactive) | 52.1 µM (inactive) | > 100 µM (inactive) | 71 µM (inactive) | 87.9 µM (inactive) | > 100 µM (inactive) | 28.6 µM (inactive) | > 100 µM (inactive) | 12.9 µM (inactive) | > 100 µM (inactive) | 53.2 µM (inactive) | 39.2 µM (inactive) | > 100 µM (inactive) | 63.2 µM (inactive) | 68.5 µM (inactive)
CN(CCO)c1nc(=O)c2c(n1C1OC(CO)C(O)C(O)C1O)CCCC2 (stereo not given) | > 100 µM (inactive) | – | > 100 µM (inactive) | > 100 | > 100 µM (inactive) | > 100 µM (inactive) | > 100 µM (inactive) | > 100 µM (inactive) | > 100 µM (inactive) | > 100 µM (inactive) | > 100 µM (inactive) | > 100 µM (inactive) | > 100 µM (inactive) | > 100 µM (inactive) | > 100 µM (inactive) | > 100 µM (inactive) | > 100 µM (inactive) | > 100 µM (inactive) | 62.5 µM (inactive)
COc1cc2nncc(Sc3cnnc4ccccc34)c2cc1OC | 27.4 µM (inactive) | 26.7 µM (inactive) | – | 24.7 | 22.1 µM (inactive) | 21.6 µM (inactive) | 18.9 µM (inactive) | 23.3 µM (inactive) | 18 µM (inactive) | 22.8 µM (inactive) | 17.4 µM (inactive) | – | 14.2 µM (inactive) | – | 19.8 µM (inactive) | 6 µM (inactive) | 7.52 µM (inactive) | 31.1 µM (inactive) | –
